Measurements as given in patent US11147272B2, “Pyridone compounds and agricultural and horticultural fungicides comprising the same as active ingredients” (MITSUI CHEMICALS AGRO, INC., priority 2017, dated 2021).

Tests used:
Magnaporthe grisea = experiment: whole plant or invertebrate; assay type: in vivo; details: for Test A control value class: class of control value
Alternaia brassicicola = experiment: Test Example C: Alternaria sooty spot on cabbage; assay type: in vivo
Description: Seeds of a test plant (cabbage variety: Shikidori) were planted and cultivated until the cotyledons extended.
<Control Value> Control value=100{1−(n/3)}

Puccinia recondita = experiment: Test Example E: Brown rust on wheat; assay type: in vivo
Phytophthora infestans = experiment: whole plant or invertebrate; assay type: in vivo; details: for Test F control value class: class of control value
Botrytis cinerea = experiment: Test Example B: Gray mold on tomato; details: for Test B control value class: class of control value
Plasmopara viticola = experiment: Test Example G: Downy mildew on vine; details: for Test G control value: 7 to 10 days after inoculation; for Test G control value class: Downy mildew on vine (Neomuscat), 2.5 ml/pot, assessed 7 to 10 days after inoculation
[1] = system: Colletotrichum orbiculare; experiment: Test Example H: Anthracnose on cucumber; details: for Test H control value: 6 to 10 days after inoculation; for Test H control value class: Anthracnose on cucumber (Sagami Hanjiro), 2.5 ml/pot, assessed 6 to 10 days after inoculation
[2] = system: Blumeria graminis f. sp. hordei; experiment: Test Example D: Powdery mildew on barley; details: for Test D control value class: class of control value
[3] = Blast on rice, control value class
[4] = Alternaria sooty spot on cabbage, control value class
[5] = Brown rust on wheat, control value class
[6] = Late blight on tomato, control value class
[7] = Gray mold on tomato, control value class
[8] = Downy mildew on vine, 250 ppm spray
[9] = Anthracnose on cucumber, 250 ppm spray
[10] = Powdery mildew on barley, control value class
[11] = 250 ppm drug solution sprayed on test plant
[12] = 250 ppm drug solution sprayed (2.5 ml/pot), grape Neomuscat
[13] = 250 ppm drug solution sprayed (2.5 ml/pot), cucumber Sagami Hanjiro
[14] = Alternaria sooty spot on cabbage, class of control value
[15] = Brown rust on wheat, class of control value

CCc1cc(Br)c(=O)n(C)c1-c1ccc(F)cc1Br [compound 350]
Test A control value (Magnaporthe grisea; [3]): L (50% or less control value) | Test C control value (Alternaia brassicicola; [4]): H (more than 50% control value) | Test E control value (Puccinia recondita; [5]): H (more than 50% control value) | Test F control value (Phytophthora infestans; [6]): L (50% or less control value) | Test B control value (Botrytis cinerea; [7]): H (more than 50% control value) | Test G control value (Plasmopara viticola; [8]): H (more than 50% control value) | Test H control value [1, 9]: L (50% or less control value) | Test D control value [2, 10]: L (50% or less control value)

CCn1c(-c2c(F)cc(F)cc2F)c(C(OC)C(C)C)cc(Br)c1=O (centres unmarked) [compound 501]
Test A control value (Magnaporthe grisea; [11]): H (more than 50% control value) | Test C control value (Alternaia brassicicola; [11]): H (more than 50% control value) | Test E control value (Puccinia recondita; [11]): H (more than 50% control value) | Test F control value (Phytophthora infestans; [11]): L (50% or less control value) | Test B control value (Botrytis cinerea; [11]): H (more than 50% control value) | Test G control value (Plasmopara viticola; [12]): L (50% or less control value) | Test H control value [1, 13]: H (more than 50% control value) | Test D control value [2, 11]: H (more than 50% control value)

CCCc1cc(Cl)c(=O)n(CC)c1-c1ccc(F)cc1Br [compound 368]
Test A control value (Magnaporthe grisea; [3]): H (more than 50% control value) | Test C control value (Alternaia brassicicola; [4]): H (more than 50% control value) | Test E control value (Puccinia recondita; [5]): H (more than 50% control value) | Test F control value (Phytophthora infestans; [6]): H (more than 50% control value) | Test B control value (Botrytis cinerea; [7]): H (more than 50% control value) | Test G control value (Plasmopara viticola; [8]): H (more than 50% control value) | Test H control value [1, 9]: H (more than 50% control value) | Test D control value [2, 10]: H (more than 50% control value)

CCc1cc(Br)c(=O)n(CC)c1-c1ccc(OC)cc1C [compound 356]
Test A control value (Magnaporthe grisea; [3]): H (more than 50% control value) | Test C control value (Alternaia brassicicola; [4]): H (more than 50% control value) | Test E control value (Puccinia recondita; [5]): H (more than 50% control value) | Test F control value (Phytophthora infestans; [6]): L (50% or less control value) | Test B control value (Botrytis cinerea; [7]): H (more than 50% control value) | Test G control value (Plasmopara viticola; [8]): L (50% or less control value) | Test H control value [1, 9]: H (more than 50% control value) | Test D control value [2, 10]: H (more than 50% control value)

CCc1cc(Cl)c(=O)n(CC)c1-c1c(F)cc(OC)cc1F [compound 390]
Test A control value (Magnaporthe grisea; [11]): H (more than 50% control value) | Test C control value (Alternaia brassicicola; [11]): H (more than 50% control value) | Test E control value (Puccinia recondita; [11]): H (more than 50% control value) | Test F control value (Phytophthora infestans; [11]): L (50% or less control value) | Test B control value (Botrytis cinerea; [11]): H (more than 50% control value) | Test G control value (Plasmopara viticola; [12]): H (more than 50% control value) | Test H control value [1, 13]: H (more than 50% control value) | Test D control value [2, 11]: H (more than 50% control value)

CC(C)Cc1cc(Cl)c(=O)n(C)c1-c1ccc(F)cc1 [compound 155]
Test A control value class (Magnaporthe grisea; Blast on rice): L (50% or less control value) | Test C control value class (Alternaia brassicicola; [14]): H (more than 50% control value) | Test E control value class (Puccinia recondita; [15]): H (more than 50% control value) | Test F control value class (Phytophthora infestans; Late blight on tomato): L (50% or less control value) | Test B control value class (Botrytis cinerea; Gray mold on tomato): H (more than 50% control value) | Test G control value class (Plasmopara viticola; 250 ppm spray): H (more than 50% control value) | Test H control value class ([1]; 250 ppm spray): L (50% or less control value) | Test D control value class ([2]; Powdery mildew on barley): H (more than 50% control value)

CCCC1=C(c2c(F)cccc2F)N(CC)C(=O)CC1 [compound 422]
Test A control value (Magnaporthe grisea; [11]): L (50% or less control value) | Test C control value (Alternaia brassicicola; [11]): H (more than 50% control value) | Test E control value (Puccinia recondita; [11]): L (50% or less control value) | Test F control value (Phytophthora infestans; [11]): L (50% or less control value) | Test B control value (Botrytis cinerea; [11]): L (50% or less control value) | Test G control value (Plasmopara viticola; [12]): L (50% or less control value) | Test H control value [1, 13]: L (50% or less control value) | Test D control value [2, 11]: H (more than 50% control value)

CCn1c(-c2c(F)cc(OC)cc2F)c(C(=O)C(C)C)cc(Cl)c1=O [compound 73]
Test A control value class (Magnaporthe grisea; Blast on rice): H (more than 50% control value) | Test C control value class (Alternaia brassicicola; [14]): H (more than 50% control value) | Test E control value class (Puccinia recondita; [15]): H (more than 50% control value) | Test F control value class (Phytophthora infestans; Late blight on tomato): L (50% or less control value) | Test B control value class (Botrytis cinerea; Gray mold on tomato): H (more than 50% control value) | Test G control value class (Plasmopara viticola; 250 ppm spray): H (more than 50% control value) | Test H control value class ([1]; 250 ppm spray): H (more than 50% control value) | Test D control value class ([2]; Powdery mildew on barley): H (more than 50% control value)

CCCCC(O)c1cc(Cl)c(=O)n(CC)c1-c1c(F)cc(F)cc1F (centres unmarked) [compound 276]
Test A control value (Magnaporthe grisea; [3]): H (more than 50% control value) | Test C control value (Alternaia brassicicola; [4]): H (more than 50% control value) | Test E control value (Puccinia recondita; [5]): H (more than 50% control value) | Test F control value (Phytophthora infestans; [6]): L (50% or less control value) | Test B control value (Botrytis cinerea; [7]): H (more than 50% control value) | Test G control value (Plasmopara viticola; [8]): H (more than 50% control value) | Test H control value [1, 9]: L (50% or less control value) | Test D control value [2, 10]: H (more than 50% control value)

CCn1c(-c2c(F)cc(F)cc2F)c(COc2ccc(Cl)cc2)cc(Cl)c1=O [compound 311]
Test A control value (Magnaporthe grisea; [3]): L (50% or less control value) | Test C control value (Alternaia brassicicola; [4]): L (50% or less control value) | Test E control value (Puccinia recondita; [5]): H (more than 50% control value) | Test F control value (Phytophthora infestans; [6]): L (50% or less control value) | Test B control value (Botrytis cinerea; [7]): L (50% or less control value) | Test G control value (Plasmopara viticola; [8]): L (50% or less control value) | Test H control value [1, 9]: L (50% or less control value) | Test D control value [2, 10]: L (50% or less control value)

CCCc1cc(Cl)c(=O)n(CC)c1-c1c(F)cc(F)cc1F [compound 378]
Test A control value (Magnaporthe grisea; [11]): H (more than 50% control value) | Test C control value (Alternaia brassicicola; [11]): H (more than 50% control value) | Test E control value (Puccinia recondita; [11]): H (more than 50% control value) | Test F control value (Phytophthora infestans; [11]): L (50% or less control value) | Test B control value (Botrytis cinerea; [11]): H (more than 50% control value) | Test G control value (Plasmopara viticola; [12]): L (50% or less control value) | Test H control value [1, 13]: H (more than 50% control value) | Test D control value [2, 11]: H (more than 50% control value)

CCn1c(-c2c(F)cccc2F)c(C(C)(C)O)cc(Cl)c1=O [compound 23]
Test A control value class (Magnaporthe grisea; Blast on rice): H (more than 50% control value) | Test C control value class (Alternaia brassicicola; [14]): H (more than 50% control value) | Test E control value class (Puccinia recondita; [15]): H (more than 50% control value) | Test F control value class (Phytophthora infestans; Late blight on tomato): L (50% or less control value) | Test B control value class (Botrytis cinerea; Gray mold on tomato): H (more than 50% control value) | Test G control value class (Plasmopara viticola; 250 ppm spray): L (50% or less control value) | Test H control value class ([1]; 250 ppm spray): H (more than 50% control value) | Test D control value class ([2]; Powdery mildew on barley): H (more than 50% control value)

CCOc1ccc(-c2c(CC)cc(Cl)c(=O)n2C)c(Cl)c1 [compound 337]
Test A control value (Magnaporthe grisea; [3]): L (50% or less control value) | Test C control value (Alternaia brassicicola; [4]): L (50% or less control value) | Test E control value (Puccinia recondita; [5]): H (more than 50% control value) | Test F control value (Phytophthora infestans; [6]): L (50% or less control value) | Test B control value (Botrytis cinerea; [7]): H (more than 50% control value) | Test G control value (Plasmopara viticola; [8]): L (50% or less control value) | Test H control value [1, 9]: H (more than 50% control value) | Test D control value [2, 10]: L (50% or less control value)

CCn1c(-c2ccccc2Cl)c(CC(C)C)ccc1=O [compound 262]
Test A control value (Magnaporthe grisea; [3]): L (50% or less control value) | Test C control value (Alternaia brassicicola; [4]): H (more than 50% control value) | Test E control value (Puccinia recondita; [5]): H (more than 50% control value) | Test F control value (Phytophthora infestans; [6]): L (50% or less control value) | Test B control value (Botrytis cinerea; [7]): H (more than 50% control value) | Test G control value (Plasmopara viticola; [8]): L (50% or less control value) | Test H control value [1, 9]: H (more than 50% control value) | Test D control value [2, 10]: H (more than 50% control value)

CCOC(C)(c1cc(Cl)c(=O)n(CC)c1-c1c(F)cc(F)cc1F)C1CCCC1 (centres unmarked) [compound 256]
Test A control value (Magnaporthe grisea; [3]): L (50% or less control value) | Test C control value (Alternaia brassicicola; [4]): L (50% or less control value) | Test E control value (Puccinia recondita; [5]): H (more than 50% control value) | Test F control value (Phytophthora infestans; [6]): L (50% or less control value) | Test B control value (Botrytis cinerea; [7]): L (50% or less control value) | Test G control value (Plasmopara viticola; [8]): H (more than 50% control value) | Test H control value [1, 9]: L (50% or less control value) | Test D control value [2, 10]: H (more than 50% control value)

CCn1c(-c2c(F)cccc2F)c(C(O)C(C)C)cc(Cl)c1=O (centres unmarked) [Compound No. 53, 3-chloro-6-(2,6-difluorophenyl)-1-ethyl-5-(1-hydroxy-2-methylpropyl)pyridin-2(1H)-one]
pest or weed control at 250 µg/mL (Magnaporthe grisea; Pyricularia oryzae, in Oryza sativa, read-out: Test A control value class): > 50% | pest or weed control at 250 µg/mL (Alternaia brassicicola; Brassica oleracea, topical, Alternaria sooty spot on cabbage, class of control value, read-out: Test C control value class): > 50% | pest or weed control at 250 µg/mL (Puccinia recondita; Puccinia recondita, topical, Brown rust on wheat, class of control value, read-out: Test E control value class): > 50% | pest or weed control at 250 µg/mL (Phytophthora infestans; Phytophthora infestans, in Solanum lycopersicum, topical, read-out: Test F control value class): < 50% | pest or weed control at 250 µg/mL (Botrytis cinerea; Botrytis cinerea, in Solanum lycopersicum, topical, read-out: Test B control value class): > 50% | pest or weed control at 250 ppm (Plasmopara viticola; Plasmopara viticola, topical, read-out: Test G control value class): > 50% | pest or weed control at 250 ppm ([1]; Colletotrichum orbiculare, in Cucumis sativus, topical, read-out: Test H control value class): > 50% | pest or weed control at 250 µg/mL ([2]; Blumeria graminis, in Hordeum vulgare, topical, read-out: Test D control value class): > 50%
